Converted amounts (≈) assume the structure as drawn. “And” between values parts separate entries of the source, which are not always exact repeats. Identical values can stand only once. Like-named read-outs stand apart in the source and are kept apart here.
Key:
erm37 mRNA = format: cell-based, Mycobacterium tuberculosis; conditions: inducer at 0.25µg/ml overnight, normalized to 23S
Mtb H37Rv [1] = assay: microbe, parasite or virus in culture; format: cell-based, Mycobacterium tuberculosis; conditions: read-out: MIC for Mtb in liquid culture
M. bovis BCG Pasteur = assay: microbe, parasite or virus in culture; format: cell-based, Mycobacterium bovis; conditions: for MIC: read-out: MIC in Pasteur M. bovis BCG
Mtb H37Rv [2] = assay: MIC80 after overnight pre-incubation of Mtb with subinhibitory macrolide; format: cell-based; conditions: Mycobacterium tuberculosis, read-out: MIC80
Mtb ribosome = format: biochemical, Mycobacterium tuberculosis
Mtb methylated ribosome = assay: Mtb in vitro translation assay with methylated (erythromycin-treated) ribosome; format: biochemical, Mycobacterium tuberculosis
[3] = format: in vitro ADME
CYP3A4 = target: T1, CYP3A4 (Homo sapiens, UniProt P08684); assay: CYP3A4 reversible inhibition in human liver microsomes; format: in vitro ADME
T1 construct: human liver microsomes (purchased from BD Gentest as a pooled batch from 150 donors); tissue BD Gentest Cat#452117; host or cells: pooled human liver microsomes (150 donors)
T1 sequence (P08684 whole entry): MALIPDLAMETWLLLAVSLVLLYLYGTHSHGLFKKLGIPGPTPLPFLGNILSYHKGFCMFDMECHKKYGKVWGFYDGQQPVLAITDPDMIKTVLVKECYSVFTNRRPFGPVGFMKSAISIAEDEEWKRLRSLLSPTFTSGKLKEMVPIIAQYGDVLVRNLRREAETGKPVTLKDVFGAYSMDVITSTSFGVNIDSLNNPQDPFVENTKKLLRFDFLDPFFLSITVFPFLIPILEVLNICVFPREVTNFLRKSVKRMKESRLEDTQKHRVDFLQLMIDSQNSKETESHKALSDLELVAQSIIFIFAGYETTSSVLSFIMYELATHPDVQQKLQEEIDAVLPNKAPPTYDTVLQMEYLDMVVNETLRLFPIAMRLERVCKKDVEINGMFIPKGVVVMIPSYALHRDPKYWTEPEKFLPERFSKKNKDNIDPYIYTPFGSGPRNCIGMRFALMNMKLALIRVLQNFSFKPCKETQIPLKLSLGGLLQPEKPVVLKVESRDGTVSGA
Method: Incubations were performed with 0.1 mg/mL human liver microsomes (purchased from BD Gentest as a pooled batch from 150 donors) in a final incubation volume of 0.25 mL. The incubation medium contained 0.05 M phosphate buffer (pH 7.4) containing an NADPH regenerating system (including 1.3 mM NADP, 3.3 mM glucose 6-phosphate,3.3 mM MgCl2, and 1.0 U/mL glucose 6-phosphate dehydrogenase). Probe CYP3A4 substrates (midazolam at 3 μM and testosterone at 50 μM), were incubated for 10 and 30 min, respectively, with increasing concentrations of GM, MGM or CGM (concentration range: 1 - 30 μM). The reaction was stopped by adding acetonitrile to precipitate the proteins. The incubation mixtures were then centrifuged for 5 min at 10,000 × g, and an aliquot of the supernatant was analyzed using high-performance liquid chromatography coupled to mass spectrometry for the assessment of 1’-hydroxymidazolam and 6β-hydroxytestosterone metabolite formation.

[4] = pH 2, 50% acetonitrile/water
[5] = system: GFP-expressing Mtb H37Rv in RAW264.7 macrophages; assay: Intramacrophage assay (MIC for Mtb in macrophages); format: cell-based, Mycobacterium tuberculosis
physchem [6] = conditions: pH 7.4
physchem [7] = assay: physchem
[8] = format: in vitro ADME; remark: listed apart in the source
RAW264.7 cells = format: in vitro ADME, murine; conditions: versus neutral analog SEQ-416
Method: RAW264.7 cells were allowed to adhere in 96 wells plates for 4 hours before compounds were added at 10 μM. Intracellular concentrations were measured by LC-MS/MS after cellular lysis. For each point, up to 4 hours, the Intra/Extra cellular ratio was calculated. Points are the mean ± SD of four tests. Clarithromycin and Azithromycin were used as references.

in vivo = conditions: male, Swiss, mouse, po; for AUC: 30 mg/kg, oral 30 mg/kg
[9] = format: in vitro ADME, human
Method: The metabolic stability of test compounds was determined as described.[57]^,[58] Incubation and experimental conditions with human hepatic microsomal fractions (purchased from BD Gentest as a pooled batch from 6 donors) were as follows: microsomal proteins, 1 mg/mL; bovine serum albumin, 1 mg/mL; substrate, 5 μM; incubation duration, 20 min; cytochrome P-450 monooxygenases (CYPs) and flavin containing monooxygenases (FMOs) cofactor, 1 mM NADPH. Enzyme activity was stopped with 1 volume of acetonitrile. […] For each test compound and for each microsomal preparation, three incubations were prepared: absolute reference in buffer (without enzyme material, i.e., microsomes); incubation without NADPH cofactor (with microsomal fractions); and incubation with NADPH (with microsomal fractions). For most compounds, biotransformation, as observed in hepatic microsomal fractions in the presence of the NADPH cofactor, consists of oxidative reactions catalyzed by either CYPs or FMOs. In these conditions, the percentage of total metabolism, which corresponds to oxidative metabolism, was determined as follows: [% total metabolism] ≈ [% oxidative metabolism] = [unchanged compound (UC) peak area − NADPH UC peak area + NADPH] × 100%, where NADPH corresponds to the enzyme cofactor for oxidation reactions catalyzed by either CYP or FMO.

physchem [10] = format: physicochemical
[11] = format: in vitro ADME; remark: listed apart in the source
in vitro = in vitro ADME; conditions: human, Caco-2; read-out: Permeability in Caco2 cells (Papp)
[12] = Mycobacterium tuberculosis variant bovis BCG, BCG

CC[C@H]1OC(=O)[C@H](C)[C@@H](O[C@H]2C[C@@](C)(OC)[C@@H](O)[C@H](C)O2)[C@H](C)[C@@H](O[C@@H]2O[C@H](C)C[C@H](N(C)C)[C@H]2O)[C@](C)(OC)C[C@@H](C)C(=O)[C@H](C)[C@@H](O)[C@]1(C)O [Clarithromycin]
erm37 mRNA fold change (erm37 mRNA): 57 fold change | MIC (Mtb H37Rv [1]; listed as clarithromycin): 8 µM (≈ 5.98 µg/mL) | MIC (Mtb H37Rv [1]): 2 µM (≈ 1.5 µg/mL) | MIC (M. bovis BCG Pasteur; [12]): 0.1 µM (≈ 0.0748 µg/mL) | MIC80 (Mtb H37Rv [2]; Without induction): 2 µM (≈ 1.5 µg/mL) | MIC80 (Mtb H37Rv [2]; overnight pre-incubation with SEQ-9 0.125µg/ml): 4 µM (≈ 2.99 µg/mL) | MIC80 (Mtb H37Rv [2]; overnight pre-incubation with SEQ-9 0.25µg/ml): 8 µM (≈ 5.98 µg/mL) | MIC80 (Mtb H37Rv [2]; overnight pre-incubation with clarithromycin 0.125µg/ml): 8 µM (≈ 5.98 µg/mL) | MIC80 (Mtb H37Rv [2]; overnight pre-incubation with clarithromycin 0.25µg/ml): 8 µM (≈ 5.98 µg/mL) | IC50 (Mtb ribosome; non-methylated ribosome, read-out: IC50 ribosome): 0.354 µM | IC50 (Mtb methylated ribosome; methylated ribosome, read-out: IC50 methylated ribosome): 88.1 µM

CON=C1C[C@@H](C)O[C@@H](O[C@@H]2[C@@H](C)[C@H](O[C@H]3C[C@@H](C)N(C)C[C@H](C)O3)[C@@H](C)C(=O)O[C@H](C(C)CO[C@@H]3O[C@H](C)[C@@H](O)[C@@H](OC)[C@H]3OC)[C@H](C)[C@@H](OC(=O)CC(C)C)[C@@H](C)C(=O)[C@@](C)(OC(=O)NCc3ccccc3)C[C@@H]2C)[C@@H]1O (stereo partly drawn) [SEQ-372, (2R,3S,4R,5R,7S,9S,10S,11R,12S,13R)-7-[(benzylcarbamoyl)oxy]-2-(1-{[(2R,3R,4R,5R,6R)-5-hydroxy-3,4-dimethoxy-6-methyltetrahydro-2H-pyran-2-yl]oxy}propan-2-yl)-10-{[(2S,3R,6R)-3-hydroxy-4-(methoxyimino)-6-methyltetrahydro-2H-pyran-2-yl]oxy}-3,5,7,9,11,13-hexamethyl-6,14-dioxo-12-{[(2S,5R,7R)-2,4,5-trimethyl-1,4-oxazepan-7-yl]oxy}oxacyclotetradecan-4-yl 3-methylbutanoate]
Metabolic stability in rat liver microsomes (% metabolized compound after 20 min) [3]: 22% | Cytochrome 3A4 inhibition (in words) (CYP3A4; human, pH 7.4): inhibited cytochrome 3A4 | IC50 (CYP3A4; midazolam, read-out: CYP3A4 inhibition, IC50 with midazolam as substrate): 1200 nM | IC50 (CYP3A4; testosterone, read-out: CYP3A4 inhibition, IC50 with testosterone as substrate (T)): 3800 nM | Chemical stability: t/12@pH 2 [4]: ∼25 h | MIC ([5]; Mycobacterium tuberculosis, H37RV, read-out: MIC for Mtb tuberculosis in macrophages): 0.06 µM (≈ 0.0673 µg/mL) | Increased potency against Mtb in the macrophage compared with SEQ-416 ([5]; versus SEQ-416): approximately 10 fold | logD (physchem [6]): 4.93 | MIC (Mtb H37Rv [1]; Mycobacterium tuberculosis, H37RV): 0.54 µM (≈ 0.606 µg/mL) | Growth inhibition (MIC80) (M. bovis BCG Pasteur): 0.29 µM and 0.25 µM and 0.34 µM | MIC80 (M. bovis BCG Pasteur; Mycobacterium tuberculosis variant bovis BCG, BCG, read-out: Growth inhibition (MIC80)): 0.28 µM (≈ 0.314 µg/mL) | MIC (M. bovis BCG Pasteur; [12]): 0.28 µM (≈ 0.314 µg/mL) | pKa (physchem [7]): 8.2 | Metabolic stability in mouse liver microsomes (% metabolized compound after 20 min) [8]: 8% | IC50 (Mtb ribosome; read-out: Inhibition of Mtb translation (IC50 μM)): 0.039 µM | Increase in macrophage accumulation compared with SEQ-416 (RAW264.7 cells): 20 fold | IC50 (Mtb methylated ribosome; read-out: Translation inhibition of Mtb methylated ribosome (IC50 μM)): 0.054 µM | bioavailability (in vivo): 17% | AUC (in vivo; AUC in lung @30 mg/kg, lung): 18000 ng·h/mL | AUC (in vivo; AUC in plasma @30 mg/kg, plasma): 900 ng·h/mL | Metabolic stability in human liver microsomes (% metabolized compound after 20 min) ([9]; 20 min incubation): 33% | Metabolic stability in human liver microsomes (% metabolized compound after 20 min), (K) ([9]; in presence of ketoconazole CYP3A inhibitor (K)): 19(K) % | Metabolic stability in human liver microsomes (% metabolized compound after 20 min), (Q) ([9]; in presence of quinidine CYP2D6 inhibitor (Q)): /32 (Q) % | solubility (physchem [10]; MCT pH 7.4, read-out: Solubility: MCT@pH 7.4): 1420 µg/mL (≈ 1270 µM) | solubility (physchem [10]; aqueous buffer, PBS pH 7.4, read-out: Solubility: PBS@pH 7.4): 58.8 µg/mL (≈ 52.4 µM) | Metabolic degradation/clearance from human liver microsomes [11]: 0.006 mL/h/10^6 hepatocytes | Papp (in vitro): 2.2 ×10⁻⁶ cm/s
